This is an account of results in ChEMBL document CHEMBL2417452, “Psammaplysin F: a unique inhibitor of bacterial chromosomal partitioning” (Bioorg Med Chem Lett, 2013).

The test system of test [1] is Staphylococcus aureus. As to the kind of experiment: Disruption of plasma membrane integrity in Staphylococcus aureus 1H assessed as extracellular ATP release at 20 uM after 15 to 120 mins by BacTiter-Glo microbial assay relative to control. It counts as functional.
Test [2] deals with Escherichia coli. As to the kind of experiment: Antibacterial activity against Escherichia coli assessed as growth inhibition at 50 uM after 5 hrs by BacTiter-Glo microbial assay relative to control. Type of test: functional.
The subject of test [3] is Staphylococcus aureus. As to the kind of experiment: Antibacterial activity against methicillin-resistant Staphylococcus aureus MW2 assessed as growth inhibition at 50 uM after 5 hrs by BacTiter-Glo microbial assay relative to control. Type of test: functional.
The test system of test [4] is Salmonella typhimurium. As to the kind of experiment: Antibacterial activity against Salmonella typhimurium assessed as growth inhibition at 50 uM after 5 hrs by BacTiter-Glo microbial assay relative to control. Type of test: functional. Conditions: Salmonella enterica subsp. enterica serovar Typhimurium.
Test [5] deals with Staphylococcus aureus. As to the kind of experiment: Antibacterial activity against methicillin-resistant Staphylococcus aureus MW2 after 20 to 24 hrs by two-fold broth microdilution method. It counts as functional, organism-based.
The test system of test [6] is Enterococcus faecalis. As to the kind of experiment: Antibacterial activity against Enterococcus faecalis NCTC 775 assessed as growth inhibition at 50 uM after 5 hrs by BacTiter-Glo microbial assay relative to control. It counts as functional.
In test [7] the test system is Klebsiella pneumoniae. As to the kind of experiment: Antibacterial activity against Klebsiella pneumoniae NCIB 8805 assessed as growth inhibition at 50 uM after 5 hrs by BacTiter-Glo microbial assay relative to control. It counts as functional.
In test [8] the test system is Staphylococcus aureus. As to the kind of experiment: Antibacterial activity against methicillin-resistant Staphylococcus aureus USA-300 after 20 to 24 hrs by two-fold broth microdilution method. It counts as functional, organism-based. Background: Broth dilution looks for growth in wells or tubes with falling amounts of substance.
Test [9] concerns Pseudomonas aeruginosa. As to the kind of experiment: Antibacterial activity against Pseudomonas aeruginosa PAO1 assessed as growth inhibition at 50 uM after 5 hrs by BacTiter-Glo microbial assay relative to control. It counts as functional.
Test [10] relates to Enterococcus faecalis. As to the kind of experiment: Antibacterial activity against Enterococcus faecalis NCTC 775 after 20 to 24 hrs by two-fold broth microdilution method. Type of test: functional, organism-based.
For test [11], the system named is Staphylococcus aureus. As to the kind of experiment: Antibacterial activity against Staphylococcus aureus NCTC 6571 assessed as growth inhibition at 50 uM after 5 hrs by BacTiter-Glo microbial assay relative to control. Type of test: functional.
Test [12] relates to Bacillus cereus. As to the kind of experiment: Antibacterial activity against Bacillus cereus NCTC 7464 assessed as growth inhibition at 50 uM after 5 hrs by BacTiter-Glo microbial assay relative to control. Type of test: functional.
For test [13], the system named is Bacillus cereus. As to the kind of experiment: Antibacterial activity against Bacillus cereus NCTC 7464 after 20 to 24 hrs by two-fold broth microdilution method. Type of test: functional, organism-based.
Test [14] has as its system Staphylococcus aureus. As to the kind of experiment: Antibacterial activity against Staphylococcus aureus NCTC 6571 after 20 to 24 hrs by two-fold broth microdilution method. Type of test: functional, organism-based.
Test [15] has as its system Staphylococcus aureus. As to the kind of experiment: Antibacterial activity against Staphylococcus aureus 1H after 20 to 24 hrs by two-fold broth microdilution method. Type of test: functional, organism-based.
Test [16] concerns Staphylococcus aureus. As to the kind of experiment: Antibacterial activity against penicillin-resistant Staphylococcus aureus 1H assessed as growth inhibition at 50 uM after 5 hrs by BacTiter-Glo microbial assay relative to control. Type of test: functional.
Test [17] deals with Staphylococcus aureus. As to the kind of experiment: Antibacterial activity against methicillin-resistant Staphylococcus aureus USA-300 assessed as growth inhibition at 50 uM after 5 hrs by BacTiter-Glo microbial assay relative to control. Type of test: functional.

In the case of `COC1=C(Br)C[C@]2(OC=C1Br)ON=C(C(=O)NCCCOc1c(Br)cc(CC[N+](C)(C)C)cc1Br)[C@@H]2O.O=C([O-])C(F)(F)F`, in test [1], the “fold change (FC)” value is 2.
In the case of GENTAMICIN, the growth inhibition (GI) in [2] came to 87%; in test [3], 93%; in test [4], 82%; in [6] it was 77%; in test [7], 83%; in test [9] it was 86%. The growth inhibition (GI) in test [11] came out at 95%; in test [12], 82%; in [16], 89%; in test [17], 90%. For the same molecule, the MIC (commonly the lowest concentration that inhibits growth of the organism) was found to be 1.6 µM in [5]; 3.1 µM in [8]; 25 µM in test [10]; 1.6 µM in test [13]; 0.8 µM in test [14]; 1.6 µM in [15].
